pIC50: −log10 of the molar value. Where two headings read alike, the source gives them in different places.
How the values were obtained:
2019-nCoV 3CLpro protein = 2019-nCoV 3CLpro protein (Severe acute respiratory syndrome coronavirus 2, UniProt P0DTD1); experiment: 2019-nCoV 3CLpro protein activity, fluorescence method with fluorescent polypeptide substrate; type: biochemical
[1] = tested on: bleomycin-induced mouse lung disease model; experiment: Lung and spleen coefficients, 24-h modeling; type: in vivo, C57 mice; conditions: 90 mg/kg, effect better than that of Dex
Protocol: Animals of 24-h modeling were randomly divided into 5 groups according to the table below, 3 animals per control group and 5 animals per test group.
Drug administration began 24 h or 7 d after modeling. […] The day of the first administration was counted as D1, the next day as D2, and so forth. The normal groups and Model groups were given 200 µL of normal saline daily by gavage administration.
Method: after being euthanized, the animals were dissected, and the heart, liver, spleen, lung and kidney were weighed.
In this experiment, 105 C57 mice were randomly selected and subjected to organ drip administration of a single dose of bleomycin at 2.5 mg/kg for 24 h or 7 d for induction. After 7 days of induction, 3 model mice were randomly selected and dissected to determine whether the modeling was successful. After modeling, the survival of the mice was recorded. The living states of the mice were observed and their body weight was measured at a fixed time.
A normal control group comprised 3 mice.

Row | SMILES | pIC50 (2019-nCoV 3CLpro protein) | other results
1 | O=c1c2ccccc2[se]n1CCn1[se]c2ccccc2c1=O | – | IC50 (2019-nCoV 3CLpro protein; read-out: IC50 (converted)): 1230 nM
2 | O=c1c2ccccc2[se]n1CCCn1[se]c2ccccc2c1=O | 6.94 | –
3 | O=c1c2ccccc2[se]n1CCCCCn1[se]c2ccccc2c1=O | 7.06 | –
4 | O=c1c2ccccc2[se]n1CCCCCCCCCCCCn1[se]c2ccccc2c1=O | 7.45 | –
5 | O=c1c2cc(O)ccc2[se]n1CCCCn1[se]c2ccc(O)cc2c1=O | 7.38 | –
6 | O=c1c2ccccc2[se]n1-c1ccc(S(=O)(=O)n2[se]c3ccccc3c2=O)cc1 | 5.91 | –
7 | Cc1[nH]c(/C=C2\C(=O)Nc3c(F)cccc32)c(C)c1C(=O)OCCn1[se]c2ccccc2c1=O | 5.79 | –
8 | O=c1c2ccccc2[se]n1CCSSCCn1[se]c2ccccc2c1=O | 5.84 | –
9 | O=c1c2ccccc2[se]n1CCCCn1[se]c2ccccc2c1=O [BS1801] | – | Effect on lung coefficient (in words) [1]: significantly reduce increases in the lung coefficient
10 | O=c1c2ccccc2[se]n1CCCCn1[se]c2ccccc2c1=O [drawing 188] | 6.95 | –
